Laboratory results reported in ChEMBL document CHEMBL3045366, “Pyridazin-3(2H)-ones: the versatile pharmacophore of medicinal significance” (Med Chem Res, 2013).
Each block holds one compound with its values, some of them ahead of it.

Tests used:
[1] = Inhibition of acyl-coA cholesterol O-acyltransferase (unknown origin); design: species or system Homo sapiens
Thoracic aorta = assay: Inodilatory activity in Wistar Rattus norvegicus (rat) thoracic aorta assessed as inhibition of phenylephrine-induced contraction; format: functional, tissue-based
Mus musculus = assay: Anti-inflammatory activity in Mus musculus (mouse) assessed as inhibition of arachidonic acid-induced ear edema at 30 umol/kg, po relative to control; format: functional
[2] = Half life in Rattus norvegicus (rat); format: ADME, organism-based; conditions: in vivo

SMILES: CS(=O)(=O)Nc1ccc(C2=NN(c3ccccc3)C(=O)CC2)cc1
IC50 (Thoracic aorta): 0.08 µM

SMILES: CCOc1ccc(C2=NN(CCCCOc3ccc(C4=NNC(=O)CC4C)cc3)C(=O)C3CC=CCC23)cc1OCC (stereo not given)
inhibition in vivo at 30 µmol/kg (Mus musculus): 46%

SMILES: COc1ccc(C2=NN(CCCCOc3ccc(C4=NNC(=O)CC4C)cc3)C(=O)C3CC=CCC23)cc1Cl (stereo not given)
inhibition in vivo at 30 µmol/kg (Mus musculus): 46%

The remaining lines, values ahead:

IC50 [1]: 57 µM
SMILES: CCCCCCn1nc(-c2ccccc2)c(-c2ccccc2)cc1=O

half-life [2]: 4.3 h
SMILES: O=C(O)COc1cccc2c1CC[C@H](Cn1nc(C(c3ccccc3)c3ccccc3)ccc1=O)C2
